Laboratory results: paper PMC6165277 (2018)

Experiments:
[1] = tested on: ATP-binding aptamer incorporated DNA scaffold (DNA, duplex) ACCTGGGGGAGTATTGCGGAGGAAGGT/ACCTTCCTCCGCAATACTCCCCCAGGT; test: Dox fluorescence quenching titration; conditions: aqueous solution; Dox 1 µg/mL; maximum quenching at Dox/DNA mass ratio ~1:9.8
[2] = tested on: ATP-binding aptamer incorporated DNA scaffold (DNA, duplex) ACCTGGGGGAGTATTGCGGAGGAAGGT/ACCTTCCTCCGCAATACTCCCCCAGGT; test: Dox fluorescence recovery (release of intercalated Dox); conditions: indirect; Dox/DNA mass ratio 1:10; recovery ~20, ~36, ~56% at 4, 8, 20 mM ATP

COc1cccc2c1C(=O)c1c(O)c3c(c(O)c1C2=O)C[C@@](O)(C(=O)CO)C[C@@H]3O[C@H]1C[C@H](N)[C@H](O)[C@H](C)O1
binding [1]: yes

Nc1ncnc2c1ncn2[C@@H]1O[C@H](COP(=O)(O)OP(=O)(O)OP(=O)(O)O)[C@@H](O)[C@H]1O
binding [2]: yes
